Here are results for 2 molecules from patent US20170027973A1, “MODULARION OF INVARIANT NATURAL KILLER T CELLS IN THE TREATMENT OF SEPSIS” (LONDON HEALTH SCIENCES CENTRE RESEARCH INC., priority 2014, published 2017).

Experiment [1] concerns surface TCR of iNKT cells. To be noted: after 24 hours; cited from earlier work.
Another experiment concerns Jα18−/− mice with IAS. Put plainly: IAS model in iNKT-deficient Jα18−/− mice: murine sepsis score. The experiment is classed as in vivo, mouse. The procedure:
FIG. 4: Th2-polarizing glycolipid OCH reduces disease severity in IAS. C57BL/6 (B6) mice were concomitantly injected i.p. with fecal slurry (FS; 500 μL of 90 mg/mL solution) to induce intra-abdominal sepsis (IAS), and vehicle, OCH, or KRN7000. […] (c) iNKT-deficient Jα18−/− mice were given FS (500 μL of a 90 mg/mL solution) to induce IAS and concomitantly treated with OCH or vehicle. Murine sepsis scores were similar between vehicle and OCH-treated mice (n=3 per group). […] The percentages of T cells remained unchanged with administration of iNKT-specific glycolipid agonists (n=6, n=4, n=6, and n=3 for vehicle, OCH, Vehicle (KRN7000) and KRN7000 groups respectively). *p<0.05, **p<0.01 by Mann-Whitney U test. (d) Bacterial counts in blood and multiple organs were similar between vehicle-, OCH-, and KRN7000-treated mice with sepsis (n=7-9 per group). Data are representative of at least three independent experiments.
Stool from the cecum of euthanized naïve B6 mice was expressed through an enterotomy, homogenized, and suspended in 0.9% normal saline (NS) to produce a fecal slurry at a final concentration of 90 mg/mL, for use in experiments on the same day. […] The mice were monitored and scored by two independent investigators—one of whom was blinded to the treatment—every 2-3 hours for the first 12 hours, and then every 1-2 hours thereafter. […]

The test system of a further experiment is invariant TCR. To be noted: OCH compared to KRN7000; cited from earlier work.

As for `CCCCCCCCCCCCCCCCCCCCCCCCCC(=O)N[C@@H](CO[C@H]1O[C@H](CO)[C@H](O)[C@H](O)[C@H]1O)[C@H](O)[C@H](O)CCCCCCCCCCCCCC` [KRN7000, reference compound], the “potency at down-regulating the TCR relative to OCH” value in experiment [1] is given as “approximately 10 fold”.
Take `CCCCCCCCCCCCCCCCCCCCCCCC(=O)N[C@@H](COC1OC(CO)C(O)C(O)C1O)[C@H](O)[C@H](O)CCCCC` (stereo partly drawn) [OCH]: the “disease severity (MSS) versus vehicle” value with Jα18−/− mice with IAS is recorded as “did not observe any differences”. Besides, in the experiment on invariant TCR, the “binding affinity for the invariant TCR” value is recorded as “lower”.
